These results are taken from ChEMBL document CHEMBL1201862, “PubChem BioAssay data set” (2004).

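Compound exposure: 48 hours, 5 concentrations, 96-well plates. Abbreviation: GI50, concentration required for 50% inhibition of growth.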 The source made the active and inactive calls. Rule as the data show it: active = GI50 up to about 1.1 µM and inactive = higher.

What all share (experiment): inhibition of tumour cell growth, NCI panel, 48 h
In assay [1] the test system is HL-60.
The subject of assay [2] is SF-268.
The test system of assay [3] is HOP-92.
In assay [4] the test system is LOX IMVI.
The test system of assay [5] is Malme-3M.
Assay [6] concerns OVCAR-8.
Assay [7] has as its system PC-3.
Assay [8] has as its system OVCAR-3.
Assay [9] relates to UACC-62.
In assay [10] the test system is NCI-H522.
In assay [11] the test system is KM12.
The test system of assay [12] is UACC-257.
Assay [13] relates to RPMI-8226.
The test system of assay [14] is SNB-19.
Assay [15] has as its system HCT-116.
Assay [16] concerns K562.
Assay [17] relates to MOLT-4.
In assay [18] the test system is ACHN.
Assay [19] has as its system CAKI-1.
Assay [20] relates to HOP-62.

On to `CCOC(=O)c1ccc(-c2cc(C)no2)[nH]1`, for which the GI50 in assay [1] was 67.5 µM (inactive); in assay [2], > 100 µM (inactive); in assay [3] it was > 100 µM (inactive); in assay [4], > 100 µM (inactive); in [5], > 100 µM (inactive); in assay [6], > 100 µM (inactive). In addition, the GI50 is 83.8 µM (inactive) in assay [7]; 81.8 µM (inactive) in assay [8]; 59.8 µM (inactive) in [9]; 76.2 µM (inactive) in [10]; 31.8 µM (inactive) in [11]; > 100 µM (inactive) in [12]. In addition, the GI50 in [13] was > 100 µM (inactive); in [14], > 100 µM (inactive); in assay [15], 75.3 µM (inactive); in assay [16] it was 32.5 µM (inactive); in assay [17] it was 42.1 µM (inactive); in [18] it was > 100 µM (inactive). Further, the GI50 in assay [19] was 28.8 µM (inactive).
In the case of `CCOC(=O)C1(C#N)C2(C#N)C(N)=NC(ON=C(C)C)(ON=C(C)C)C12C#N` (stereo not drawn), the GI50 in [1], in [2], in [3], in assay [4], in assay [5] and in [6] was > 100 µM (inactive) throughout. Besides, the GI50 in assay [7], in assay [9], in assay [10], in assay [11], in assay [12] and in assay [13] was > 100 µM (inactive) each time. Further, the GI50 in assay [14], in assay [15], in assay [20], in assay [16], in [17] and in [18] was > 100 µM (inactive) each time. Further, in assay [19], the GI50 is > 100 µM (inactive).
For `COc1cc(OCc2ccc3nc(-c4ccccc4)c(N)nc3c2)cc(OC)c1OC`, the GI50 in [1] was 12.4 µM (inactive); in assay [2] it was 34.8 µM (inactive); in assay [3], 11.4 µM (inactive); in assay [4], 13.7 µM (inactive); in [5], 13.4 µM (inactive); in assay [6], 27.8 µM (inactive). The GI50 in [7] was 17.8 µM (inactive); in assay [8], 16.4 µM (inactive); in assay [9], 13.4 µM (inactive); in assay [10] it was 13.6 µM (inactive); in [11] it was 18.6 µM (inactive); in [12], 25 µM (inactive). For the same molecule, the GI50 in assay [13] was 8.79 µM (inactive); in [14] it was 24.2 µM (inactive); in [15] it was 3.61 µM (inactive); in [16] it was 15.5 µM (inactive); in assay [17], 8.13 µM (inactive); in [18], 20.8 µM (inactive). Besides, the GI50 in assay [19] is 23.4 µM (inactive).
`CC(=O)OC1[C@H](n2ccnc2)C[C@H]2[C@@H]3CC=C4CC(N5CCCC5)CC[C@]4(C)[C@H]3CC[C@]12C` (stereo partly drawn): the GI50 was 12.1 µM (inactive) in assay [1]; 34.8 µM (inactive) in assay [2]; 69.5 µM (inactive) in [3]; 10.1 µM (inactive) in assay [4]; 62.5 µM (inactive) in assay [6]; 34.4 µM (inactive) in assay [7]. In addition, the GI50 was 54.6 µM (inactive) in assay [8]; 27.5 µM (inactive) in assay [9]; 24.1 µM (inactive) in assay [10]; 58.3 µM (inactive) in assay [11]; 18.8 µM (inactive) in assay [12]; 23.2 µM (inactive) in assay [13]. Moreover, the GI50 was > 100 µM (inactive) in assay [14]; 21 µM (inactive) in assay [15]; 17.1 µM (inactive) in assay [16]; 17.3 µM (inactive) in [17]; 52.2 µM (inactive) in assay [18]; 43.5 µM (inactive) in [19].
For the molecule `CN(C)CCCCCNc1c2ccccc2nc2cccc([N+](=O)[O-])c12`, the GI50 was 0.00143 µM (active) in [1]; 0.00118 µM (active) in assay [2]; 0.00329 µM (active) in [3]; 0.00289 µM (active) in assay [4]; 0.00185 µM (active) in assay [5]; 0.00177 µM (active) in assay [6]. Besides, the GI50 is 0.000313 µM (active) in assay [7]; 0.00146 µM (active) in assay [8]; 0.00183 µM (active) in [9]; 0.00957 µM (active) in assay [11]; 0.00918 µM (active) in assay [12]; 0.00042 µM (active) in assay [13]. The GI50 is 0.00413 µM (active) in assay [14]; 0.00074 µM (active) in assay [15]; 0.00149 µM (active) in assay [20]; 0.000986 µM (active) in assay [16]; 0.000807 µM (active) in assay [17]; 0.000766 µM (active) in assay [18]. Moreover, the GI50 in assay [19] was 0.00229 µM (active).
On to `CCOC(=O)c1c2ccccc2n2c(=O)n(C)nnc12`, for which the GI50 in assay [1] is 1.53 µM (inactive); in assay [2], 58.9 µM (inactive); in assay [3] it was > 100 µM (inactive); in assay [4], > 100 µM (inactive); in [5] it was > 100 µM (inactive); in assay [6], > 100 µM (inactive). Besides, the GI50 in assay [7] is > 100 µM (inactive); in assay [8] it was > 27.9 µM (inactive); in assay [9], > 100 µM (inactive); in [11] it was > 100 µM (inactive); in [12], > 100 µM (inactive); in assay [13], > 100 µM (inactive). In addition, the GI50 in assay [14] is > 100 µM (inactive); in assay [15] it was > 100 µM (inactive); in assay [20], 12.4 µM (inactive); in assay [16], > 100 µM (inactive); in [18] it was > 84.1 µM (inactive); in assay [19] it was > 100 µM (inactive).
`CCOC(=O)C1=NN(c2ccccc2)C(=O)/C1=C\NC(=S)C(N)=S`: the GI50 in assay [1] is 38.9 µM (inactive); in assay [2], 38.5 µM (inactive); in assay [3], 39.1 µM (inactive); in assay [4] it was 37.8 µM (inactive); in assay [5], 45.3 µM (inactive); in [6], 45.5 µM (inactive). The GI50 was 47.5 µM (inactive) in assay [7]; 38.5 µM (inactive) in assay [8]; 29.3 µM (inactive) in [9]; 16.6 µM (inactive) in [10]; 70.6 µM (inactive) in assay [11]; 68.5 µM (inactive) in [12]. The GI50 in assay [14] is 64.9 µM (inactive); in [15] it was 20.5 µM (inactive); in [20] it was > 100 µM (inactive); in assay [16], 38 µM (inactive); in assay [17] it was 26.4 µM (inactive); in [18] it was 21.5 µM (inactive). Also, the GI50 in assay [19] is 38.1 µM (inactive).
`COC(=O)c1c(OC(C)=O)ccc2c1c1c(n2C)C(=O)c2ccccc2C1=O`: the GI50 is 32.1 µM (inactive) in [1]; 24.4 µM (inactive) in [2]; 1.34 µM (inactive) in assay [3]; 23.9 µM (inactive) in assay [5]; 25.8 µM (inactive) in assay [6]; 27.2 µM (inactive) in [7]. Moreover, the GI50 was 17.9 µM (inactive) in assay [8]; 35.3 µM (inactive) in assay [9]; 21.7 µM (inactive) in assay [10]; 29.1 µM (inactive) in [11]; 13.1 µM (inactive) in assay [12]; 8.15 µM (inactive) in assay [13]. Moreover, the GI50 was 33.7 µM (inactive) in assay [14]; 20.5 µM (inactive) in assay [15]; 17.3 µM (inactive) in assay [20]; 66.2 µM (inactive) in assay [16]; 18.3 µM (inactive) in assay [17]; 15.6 µM (inactive) in assay [18]. Further, the GI50 in assay [19] is 20.7 µM (inactive).
On to `Cc1cc(C)c2c(n1)S(=O)(=O)N(CCCN1CCN(c3cccc(Cl)c3)CC1)C(C(=O)c1ccccc1)=C2O`, for which the GI50 in [1] is 31.6 µM (inactive); in assay [2], 39 µM (inactive); in assay [3] it was 25.8 µM (inactive); in assay [4] it was 6.01 µM (inactive); in [5], 64.3 µM (inactive); in assay [6], 36.6 µM (inactive). Further, the GI50 in assay [7] was 30.8 µM (inactive); in assay [8], 22.8 µM (inactive); in assay [9], 36.1 µM (inactive); in [10], 24.8 µM (inactive); in assay [11] it was 33.7 µM (inactive); in [12], 19.3 µM (inactive). Besides, the GI50 in assay [14] is 30.2 µM (inactive); in assay [15], 24.2 µM (inactive); in assay [20] it was 36.6 µM (inactive); in [16], 35.6 µM (inactive); in assay [17], 7.82 µM (inactive); in [18], 30.6 µM (inactive). Also, in [19], the GI50 was 12.9 µM (inactive).
For `COc1ccc(C2CC(=O)CC(c3ccc(OC)cc3)C23C(=O)NC(=O)NC3=O)cc1` (stereo not drawn), the GI50 in assay [1] is 27 µM (inactive); in assay [2], 44.1 µM (inactive); in assay [3], 25.1 µM (inactive); in assay [4] it was 30.5 µM (inactive); in assay [5], 25.9 µM (inactive); in [6], 32.2 µM (inactive). Besides, the GI50 is 33.9 µM (inactive) in [7]; 19.3 µM (inactive) in [8]; 64.1 µM (inactive) in assay [9]; 23.3 µM (inactive) in assay [10]; 25.6 µM (inactive) in [11]; 38.1 µM (inactive) in [12]. The GI50 is 35.3 µM (inactive) in [14]; 27.4 µM (inactive) in assay [15]; 13.8 µM (inactive) in [20]; 37.9 µM (inactive) in assay [16]; 19 µM (inactive) in assay [17]; 31.3 µM (inactive) in assay [18]. For the same molecule, in assay [19], the GI50 was 33.1 µM (inactive).
